Assay results: patent US9187449B2, “Compounds with increased specificity for the treatment of glioma” (University of Tennessee Research Foundation, priority 2013, dated 2015)
Where a name gives a salt, the structure may show the parent alone. Read-outs that look alike come from different tables or passages of the source.

Assays:
Assay type in all cases: cell-based
[1] = system: LN18; experiment: MTT cell viability assay, LN18 glioma cells; settings: human glioma cell line LN18, five days exposure, mean of triplicate experiments, read-out: Mean IC50 ± SD, LN18
Source text: (§1) The synthesized THI analogs were screened for their efficacy against established human glioma cell lines using the MTT colorimetric assay. This assay measures cell viability by quantitating purple formazan crystal formation caused by the reduction of tetrazolium salts in metabolically active cells. The inventors performed a series of experiments to determine the best concentration range for each compound to generate a half-maximal inhibitory concentration (IC50). The IC50 value for each compound represents the mean of triplicate experiments. Primary astrocytes established from the cortices of normal mouse pups were used as the model system to represent the degree of toxicity that would be expected in normal astrocytes in the human brain. The glioma cells and normal astrocytes were exposed to escalating concentrations of each THI compound for five days and then subjected to the MTT assay. Cell viability data at each concentration was used to calculate IC50 values.

[2] = system: T98G; experiment: MTT cell viability assay, T98G glioma cells; settings: human glioma cell line T98G, five days exposure, mean of triplicate experiments, read-out: Mean IC50 ± SD, T98G
Source text: as §1

[3] = system: U87; experiment: MTT cell viability assay, U87 glioma cells; settings: human glioma cell line U87, five days exposure, mean of triplicate experiments, read-out: Mean IC50 ± SD, U87
Source text: as §1

[4] = system: Normal astrocytes; experiment: MTT cell viability assay, normal primary astrocytes (toxicity model); settings: primary astrocyte cultures from normal mouse brains, five days exposure, mean of triplicate experiments, read-out: Mean IC50 ± SD, Normal astrocytes
Source text: as §1

[5] = system: A172; experiment: MTT cell viability assay, A172 glioma cells; settings: human glioma cell line A172, five days exposure, mean of triplicate experiments, read-out: Mean IC50 ± SD, A172
Source text: as §1

IC50 [1]	IC50 [2]	IC50 [3]	IC50 [5]	IC50 ([1]; LN-18, 120 h)	IC50 ([2]; 120 h)	IC50 ([3]; U-87 MG, 120 h)	IC50 ([5]; A 172, 120 h)	SMILES	IC50 [4]	IC50 ([4]; 120 h)
392 ± 77.2 µM	571 ± 50.4 µM	49.1 ± 5.15 µM	65.3 ± 12 µM					Cn1nnc2c(C(N)=O)ncn2c1=O [TMZ, reference compound]	> 1000 µM	
				5.42 µM	10.4 µM	8.4 µM	5.6 µM	COc1ccncc1-c1ccc(CCC2NCCc3c(OC)ccc(OC)c32)cc1 (stereo not shown) [EDL-360 (12), 5,8-dimethoxy-1-(4-(4-methoxypyridin-3-yl)phenethyl)-1,2,3,4-tetrahydroisoquinoline dihydrochloride]		19.7 ± 2.44 µM
				13.7 µM	13.8 µM	16.2 µM	8.25 µM	COc1ccncc1-c1ccc(CC2NCCc3c(OC)ccc(OC)c32)cc1 (stereo not shown) [EDL-358 (11), 5,8-dimethoxy-1-(4-(4-methoxypyridin-3-yl)benzyl)-1,2,3,4-tetrahydroisoquinoline dihydrochloride]		24.6 ± 0.79 µM
37 µM	59.5 ± 7.61 µM	66.5 ± 1.12 µM	41.2 µM					COc1cc2c(cc1OC)C(Cc1ccc(-c3cnccc3OC)cc1)NCC2 (stereo not shown) [EDL-291 (9)]	51.1 ± 1.38 µM	
				11.7 ± 0.17 µM	14.8 ± 0.68 µM	10.5 µM	15.2 ± 0.98 µM	COc1ccncc1-c1ccc(CCCC2NCCc3c(OC)ccc(OC)c32)cc1 (stereo not shown) [EDL-361 (13), 5,8-dimethoxy-1-(3-(4-(4-methoxypyridin-3-yl)phenyl)propyl)-1,2,3,4-tetrahydroisoquinoline dihydrochloride]		11.9 ± 0.56 µM
